From US4652646A, “Thiazolo[3,2-a][1,2,3]triazolo[4,5-d]pyrimidine and [1,3,4]thiadiazolo[3,2-a][1,2,3]triazolo[4,5-d]pyrimidine derivatives” (Daiichi Seiyaku Co., Ltd., priority 1984, dated 1987)

Experiments:
[1] = tested on: release of histamine induced by passive peritoneal anaphylaxis (PPA) reaction; assay: Passive Peritoneal Anaphylaxis (PPA) test: inhibition of histamine release; assay type: in vivo, Sprague-Dawley male rats; conditions: ip, 5 min; rat PPA; 1 mg/kg intraperitoneally 30 seconds before egg albumin
Method: (§1) 1 mg of egg albumin dissolved in 0.2 ml of saline was intramuscularly administered to each of Sprague-Dawley male rats weighing 300 to 350 g (Charles River Japan Inc.), and then 1 ml of a suspension of sterilized Bordetella pertussis (2×10^10 cells) in saline was administered intraperitoneally to the rats. After 14 days, blood was drawn from the rats to obtain an antiserum.
(§2) The test was conducted according to the method of Orange et al [Orange, R. P., Stechschulte, D. J., Austen, K. F., J. Immunol., 105, pp1087-1095 (1970)]. Sprague-Dawley male rats weighing 250 to 400 g (5 rats per group) were passively sensitized by administering 5 ml of 5-fold dilution antiserum (prepared by diluting the above antiserum with saline). 2 hours later, 5 ml of an egg albumin solution prepared by dissolving 2 mg of egg albumin in phosphate buffered saline containing 0.9 mM of calcium chloride was administered intraperitoneally to the rats. After 5 minutes, the rats were sacrificed by decapitation, and peritoneal fluid was pooled and centrifuged at 300×G at 4° C. for 10 minutes. Then, amounts of SRS-A and histamine in the supernatant were determined.
The quantitative determination of histamine was carried out according to the method of Shore et al [Shore, P. A., Bunkhalter, A. H., Cohn, V. H., J. Pharmacol. Exp. Ther., 127, pp182-186 (1959)], and the total released amount of histamine per rat (μg/rat) was calculated.
(§3) In this test, the test compound of this invention was administered as follows. 2 mg of a test compound was dissolved in 10 ml of phosphate buffered saline containing 0.9 mM of calcium chloride, an equimolar amount of sodium hydroxide to test compound, 2% of dimethyl sulfoxide and 2% of ethanol, and the solution was administered intraperitoneally to the rats at a dose of 1 mg/kg 30 seconds before the injection of egg albumin for inducing PPA. For a control group, the same solution without test compound and sodium hydroxide was administered.
(§4) The inhibitory activity on release of histamine and SRS-A by the PPA reaction in the treated group was calculated by the following formula: [formula] wherein: a represents a mean value of released amount in the control group.
(§5) b represents a mean value of released amount in the treated group.
(§6) c represents a mean value of spontaneously released amount.

[2] = tested on: release of SRS-A induced by passive peritoneal anaphylaxis (PPA) reaction; assay: Passive Peritoneal Anaphylaxis (PPA) test: inhibition of SRS-A release; assay type: in vivo, Sprague-Dawley male rats; conditions: ip, 5 min; rat PPA; 1 mg/kg intraperitoneally 30 seconds before egg albumin
Method: as §1, §2
The quantitative determination of SRS-A was carried out according to the method of Stechschulte et al [Stechschulte, D. J., Auste, K. F., Bloch, K. J., J. Exp. Med., 125, pp127-147 (1967)] using a guinea pig ileum specimen in the presence of mepyramine and atropine. The amount of SRS-A was expressed in terms of unit, i.e., one unit of SRS-A activity was defined as the concentration required to produce a contraction of guinea pig ileum equal in amplitude to that produced by 5 ng of histamine, and the total released amount of SRS-A per rat (unit/rat) was calculated.
as §3, §4, §5, §6

[3] = Acute oral toxicity (LD50) in rats; conditions: rat, in vivo, oral administration
[4] = tested on: passive cutaneous anaphylaxis (PCA) reaction; assay: Passive cutaneous anaphylaxis (PCA) test; assay type: in vivo, Sprague-Dowley male rats; conditions: 0.5 h; rat PCA; 20 mg/kg in 0.5% CMC, oral, 30 minutes before antigen challenge
Method: as §1
In this test, the antiserum described in Test Example 1 was used after it was diluted with saline so as to provide a blue spot having a diameter of about 10 mm in the following control group.
Sprague-Dowley male rats weighing about 180 g (5 rats per group) were sensitized by injecting 0.05 ml of the diluted antiserum into the shaved dorsal skin. 48 hours later, the animals were challenged with 1 ml of saline containing 5 mg of egg albumin and 5 mg of Evans blue dye administered via a tail vein. 30 minutes later, the rats were sacrificed by decapitation. The dorsal skin was removed, and the long and short axis of the each wheal was measured.
In this test, the test compound was administered as follows. 20 mg of a test compound was suspended in a 0.5% CMC aqueous solution, and the suspension was administered to each of the rats in an amount of 20 mg/kg 30 minutes before the antigen challenge. For a control group, only a 0.5% CMC solution was administered.
The inhibitory activity on the PCA reaction in the treated group was calculated by the following formula: [formula] wherein: a represents a mean value of blue spot area in the control group.
b represents a mean value of blue spot area in the treated group.

Row | Structure (SMILES) | inhibition in vivo at 1 mg/kg [1] [%] | inhibition in vivo at 1 mg/kg [2] [%] | LD50 [3] [mg/kg] | inhibition in vivo at 20 mg/kg [4] [%]
1 | CC(C)(C)c1ccc(-c2nn3c(=O)c4[nH]nnc4nc3s2)cc1 [Example 1, 6-(4-tert-Butylphenyl)-[1,3,4]thiadiazolo[3,2-a][1,2,3]triazolo[4,5-d]pyrimidin-9(1H)-one] | 83 | 64 | > 2000 | 46
2 | CC(C)c1ccc(-c2nn3c(=O)c4[nH]nnc4nc3s2)cc1 [Example 2] | 85 | 52 |  | 
3 | COc1ccc(-c2nn3c(=O)c4[nH]nnc4nc3s2)cc1 [Example 3] | 93 | 42 |  | 
4 | CC(C)(C)c1ccc(-c2cn3c(=O)c4[nH]nnc4nc3s2)cc1 [Example 6] |  |  |  | 36
5 | O=c1c2[nH]nnc2nc2sc(-c3ccc(C4CCCCC4)cc3)cn12 [Example 7] |  |  |  | 40
6 | O=c1c2[nH]nnc2nc2sc(-c3ccccc3)cn12 [Example 8] | 83 | 37 |  | 
7 | O=c1c2[nH]nnc2nc2sc(CCc3ccccc3)nn12 [Example 9, 6-(2-Phenylethyl)-[1,3,4]thiadiazolo[3,2-a][1,2,3]triazolo[4,5-d]pyrimidin-9(1H)-one] | 80 | 50 | > 2000 | 52
8 | COc1cccc(-c2nn3c(=O)c4[nH]nnc4nc3s2)c1OC [Example 11] | 89 | 66 |  | 32
9 | O=c1c2[nH]nnc2nc2sc(-c3ccc4c(c3)OCO4)nn12 [Example 12] | 87 | 52 |  | 36
10 | O=c1c2[nH]nnc2nc2sc(-c3cccc(F)c3)nn12 [Example 13] |  |  |  | 34
11 | O=c1c2[nH]nnc2nc2sc(-c3ccco3)nn12 [Example 17] | 82 | 55 | > 2000 | 50
12 | Cc1ccc(-c2nn3c(=O)c4[nH]nnc4nc3s2)o1 [Example 18] |  |  | > 2000 | 
13 | CC(C)(C)c1ccc(-c2nn3c(=O)c4[nH]nnc4nc3s2)o1 [Example 20] |  |  | > 2000 | 
14 | O=c1c2[nH]nnc2nc2sc(-c3ccc(Cl)o3)nn12 [Example 21] |  |  | > 2000 | 35
15 | O=c1c2[nH]nnc2nc2sc(-c3cccs3)nn12 [Example 23] | 84 | 51 | > 2000 | 31
16 | O=c1c2[nH]nnc2nc2sc(-c3ccsc3)nn12 [Example 24] |  |  |  | 45
17 | CCc1ccc(-c2nn3c(=O)c4[nH]nnc4nc3s2)s1 [Example 27] | 81 | 63 |  | 
18 | CC(C)(C)c1ccc(-c2nn3c(=O)c4[nH]nnc4nc3s2)s1 [Example 28] |  |  |  | 34
19 | CC(C)(C)c1cc(-c2nn3c(=O)c4[nH]nnc4nc3s2)cs1 [Example 29] |  |  |  | 39
20 | CCc1sc(-c2nn3c(=O)c4[nH]nnc4nc3s2)cc1C [Example 31] |  |  |  | 32
21 | O=c1c2[nH]nnc2nc2sc(-c3ccc(Cl)s3)nn12 [Example 32] | 87 | 63 |  | 35
22 | O=c1c2[nH]nnc2nc2sc(-c3cc4c(s3)CCC4)nn12 [Example 33] | 82 | 70 |  | 47
23 | O=c1c2[nH]nnc2nc2sc(-c3cc4c(s3)CCCC4)nn12 [Example 35] | 88 | 45 |  | 45
24 | CC1CCc2sc(-c3nn4c(=O)c5[nH]nnc5nc4s3)cc2C1 (centres unmarked) [Example 36] | 83 | 41 |  | 40

Row | Structure (SMILES) | inhibition in vivo at 1 mg/kg [1] [%] | inhibition in vivo at 1 mg/kg [2] [%] | LD50 [3] [mg/kg] | inhibition in vivo at 20 mg/kg [4] [%]
25 | O=c1c2[nH]nnc2nc2sc(C3COc4ccccc4C3)nn12 (centres unmarked) [Example 39] |  |  |  | 38
26 | O=c1c2[nH]nnc2nc2sc(C3COc4ccccc4O3)nn12 (centres unmarked) [Example 41] | 91 | 62 |  | 
27 | O=c1c2[nH]nnc2nc2sc(Cc3ccccc3)nn12 [Example 42] | 99 | 54 | > 2000 | 48
28 | CC(C)(C)c1ccc(Cc2nn3c(=O)c4[nH]nnc4nc3s2)cc1 [Example 43] | 75 | 59 |  | 
29 | COc1ccc(Cc2nn3c(=O)c4[nH]nnc4nc3s2)cc1 [Example 44] | 81 | 70 |  | 
30 | O=c1c2[nH]nnc2nc2sc(Cc3ccc(F)cc3)nn12 [Example 45] |  |  |  | 57
31 | O=c1c2[nH]nnc2nc2sc(-c3ccccc3)nn12 [Example 47] |  |  | > 2000 | 38
32 | Cc1ccccc1CCc1nn2c(=O)c3[nH]nnc3nc2s1 [Example 48] |  |  | > 2000 | 
33 | Cc1cccc(CCc2nn3c(=O)c4[nH]nnc4nc3s2)c1 [Example 49] |  |  | > 2000 | 
34 | Cc1ccc(CCc2nn3c(=O)c4[nH]nnc4nc3s2)cc1 [Example 50] |  |  | > 2000 | 
35 | O=c1c2[nH]nnc2nc2sc(CCc3ccc(F)cc3)nn12 [Example 53] |  |  | > 2000 | 
36 | O=c1c2[nH]nnc2nc2sc(CCc3cccc(Cl)c3)nn12 [Example 54] |  |  | > 2000 | 
37 | O=c1c2[nH]nnc2nc2sc(CCc3ccc(Cl)cc3)nn12 [Example 55] |  |  | > 2000 | 
38 | O=c1c2[nH]nnc2nc2sc(CC(c3ccccc3)c3ccccc3)nn12 [Example 57] | 86 | 61 |  | 
39 | O=c1c2[nH]nnc2nc2sc(C=Cc3ccccc3)nn12 [Example 62] | 94 | 55 |  | 
40 | O=c1c2[nH]nnc2nc2sc(COc3ccccc3)nn12 [Example 64] |  |  |  | 33
41 | O=c1c2[nH]nnc2nc2sc(COc3ccc(F)cc3)nn12 [Example 66] | 89 | 47 |  | 
42 | CC(C)(C)c1ccc(OCCc2nn3c(=O)c4[nH]nnc4nc3s2)cc1 [Example 69] |  |  |  | 34
43 | COc1ccc(-c2cn3c(=O)c4[nH]nnc4nc3s2)cc1Cl [Example 73] |  |  |  | 48
44 | O=c1c2[nH]nnc2nc2sc(-c3cccs3)cn12 [Example 75] |  |  |  | 32
45 | Cc1ccc(-c2nn3c(=O)c4[nH]nnc4nc3s2)cc1 [Example 80, 6-(4-Methylphenyl)-[1,3,4]thiadiazolo[3,2-a][1,2,3]triazolo[4,5-d]pyrimidin-9(1H)-one monohydrate] | 91 | 42 |  | 31
46 | CC(C)(C)c1cccc(-c2nn3c(=O)c4[nH]nnc4nc3s2)c1 [Example 82] | 82 | 52 |  | 
47 | O=c1c2[nH]nnc2nc2sc(-c3ccc4c(c3)CCCC4)nn12 [Example 83] |  |  |  | 44
